The source of these data is patent publication EP4763840A1, “NOVEL QUINAZOLINE-BENZIMIDAZOLE DERIVATIVE OR PHARMACEUTICALLY ACCEPTABLE SALT THEREOF AND USE THEREOF” (Korea University Research and Business Foundation, priority 2023, dated 2025).

In test [1] the test system is SKBR3. Nature of the test: MTS assay cell viability in SKBR3. The conditions noted are these: SKBR3 (trastuzumab-sensitive), 0, 0.1, 0.5, 1, 2, and 5 µM, 72 hours. The format is cell-based. (In general: Formazan colour is commonly taken as a measure of viable cells.)
The test system of the next test is MDA-MB-231. Nature of the test: MTS assay cell viability screening in MDA-MB-231. The format is cell-based, human. Conditions: 0, 1, and 5 µM, 72 hours. On the procedure:
(§1) MDA-MB-231 (Cell seeding numbers: 0.8(M231) x 10^4 cells/wells (confluency ≧ 25%), which is a human triple-negative breast cancer (TNBC) cell line, and JIMT-1 (Cell seeding numbers: 0.8(JIMT) x 10^4 cells/wells (confluency ≧ 25%)), which is a HER2 positive breast cancer (HER2+ BC) cell line, were used in the experiment.
(§2) The above cell lines were cultured in Dulbecco's modified Eagle's medium (DMEM) containing 10% fetal bovine serum (FBS), streptomycin-penicillin (100 U/mL), and Fungizone (0.625 µg/mL) at 5% CO2 and 37°C.
(§3) The human breast cancer cell lines MDA-MB-231 and JIMT-1 were treated with quinazoline-benzimidazole derivatives of Formulas 1-1 to 1-31 at various concentrations of 0, 1, and 5 µM, respectively, for 72 hours, and then cell viability was measured using the MTS assay technique. In the MTS assay, cells were attached to a 96-well plate for 24 hours, treated with the quinazoline-benzimidazole derivative for 72 hours, developed with MTS (3-(4,5-dimethylthiazol-2-yl)-5-(3-carboxymethoxyphenyl)-2-(4-sulfophenyl)-2H-tetrazolium) for 4 hours, and then absorbance was measured at 490 nm using a Spectramax Plus384 microplate analyzer.

Test [2] concerns JIMT-1. In words: MTS assay cell viability in JIMT-1. It is filed as cell-based, human. Conditions: 72 hours; for inhibition of cell viability: JIMT-1 (trastuzumab-resistant), 0, 0.1, 0.5, 1, 2, and 5 µM; for cell viability: JIMT-1, 0, 1, and 5 µM. On the procedure:
as §1, §2, §3
(§4) In addition, after treatment with compounds 1-15, 1-16, 1-19, and 1-22 at a concentration of 5 µM for 48 hours in SKBR3 and JIMT-1 cell lines, morphological changes of the cells were observed using an optical microscope, and the results are shown in B of FIG. 4.

In test [3] the test system is JIMT-1. Nature of the test: Cell morphology by optical microscope in JIMT-1. The format is cell-based, human. The conditions noted are these: 5 µM, 48 hours. On the procedure: as §4
Test [4] relates to SKBR3. In words: Cell morphology by optical microscope in SKBR3. The format is cell-based. Conditions: 5 µM, 48 hours. On the procedure:
as §4

Test [5] concerns lung cancer cell line H1299. Nature of the test: MTS assay cell viability in H1299. It is filed as cell-based. The conditions noted are these: 0, 0.1, 0.5, 1, 5, and 10 µM, 72 hours.
Test [6] deals with JIMT-1. In words: Cell cycle analysis by propidium iodide flow cytometry in JIMT-1. It is filed as cell-based, human. Conditions: 5 µM, 48 hours, PI staining. The protocol: In order to confirm this, the following experiments were performed. After treatment with the compounds of Formulas 1-16 and 1-19 at a concentration of 5 µM for 48 hours in a trastuzumab-resistant HER2-positive breast cancer cell JIMT-1, the cells were stained with propidium iodide (PI), and the cell cycle was analyzed according to DNA content using flow cytometry, and the results are shown in A of FIG. 6.

Test [7] concerns hepatic cancer cell line HepG2. In words: MTS assay cell viability in HepG2. The format is cell-based. The conditions noted are these: 0, 0.1, 0.5, 1, 5, and 10 µM, 72 hours.
Test [8] has as its system prostate cancer cell line Du145. In words: MTS assay cell viability in Du145. It is filed as cell-based. Conditions: 0, 0.1, 0.5, 1, 5, and 10 µM, 72 hours.
Test [9] has as its system HER2, HER family members (HER3 and EGFR), and AKT and MEK. In words: Western blot of HER2 signaling proteins in JIMT-1. The conditions noted are these: 5 µM, 24, 48, and 72 hours. The format is cell-based, human. On the procedure: Then, after treatment with the compounds of Formulas 1-16 and 1-19 at a concentration of 5 µM for 24, 48, and 72 hours in a JIMT-1 cell line, protein expression and phosphorylation of HER2, HER family members (HER3 and EGFR), and AKT and MEK of downstream signaling mechanism were confirmed by western blot, and the results are shown in FIG. 7. […] Thereby, it was confirmed that the quinazoline-benzimidazole derivatives of the disclosure have a tyrosine kinase inhibitory effect on HER2 as in the above-described design objective.

For test [10], the system named is tubulin protein. In words: Western blot of apoptosis-related proteins and tubulin in SKBR3. The format is cell-based. The conditions noted are these: 5 µM, 48 hours. On the procedure:
(§5) Subsequently, after treatment with the compounds of Formulas 1-16 and 1-19 at a concentration of 5 µM for 48 hours in SKBR3 and JIMT-1 cell lines, the degree of apoptosis was measured by flow cytometry through Annexin V/PI staining, and the results are shown in A of FIG. 5. […] After treatment in the same manner as above, expression of apoptosis-related proteins and degradation of tubulin protein were confirmed by western blot, and the results are shown in B of FIG. 5.
Background: In western blotting, separated proteins are transferred to a membrane and probed.

The subject of test [11] is hematological cancer cell line HL-60. Nature of the test: MTS assay cell viability in HL-60. The conditions noted are these: 0, 0.1, 0.5, 1, 5, and 10 µM, 72 hours. It is filed as cell-based.
Test [12] concerns colorectal cancer cell line HCT116. In words: MTS assay cell viability in HCT116. The format is cell-based. Conditions: 0, 0.1, 0.5, 1, 5, and 10 µM, 72 hours.
The subject of test [13] is JIMT-1. In words: Annexin V/PI staining flow cytometry in JIMT-1. It is filed as cell-based, human. Conditions: 5 µM, 48 hours. On the procedure: as §5
Another test has as its system phospho-Histone H3. Nature of the test: phospho-Histone H3 immunocytochemistry in JIMT-1. The conditions noted are these: 5 µM, 24 hours. The format is cell-based, human. The protocol:
In addition, after treatment with compounds 1-16 and 1-19 at a concentration of 5 µM for 24 hours in a JIMT-1 cell line, expression of phospho-Histone H3, a marker of mitosis, was confirmed by immunocytochemistry, and the results are shown in B of FIG. 6.

In test [14] the test system is ovarian cancer cell line SKOV3. Nature of the test: MTS assay cell viability in SKOV3. The format is cell-based. The conditions noted are these: 0, 0.1, 0.5, 1, 5, and 10 µM, 72 hours.
In test [15] the test system is SKBR3. Nature of the test: Annexin V/PI staining flow cytometry in SKBR3. It is filed as cell-based. Conditions: 5 µM, 48 hours. On the procedure:
as §5

In test [16] the test system is tubulin protein. In words: Western blot of apoptosis-related proteins and tubulin in JIMT-1. It is filed as cell-based, human. The conditions noted are these: 5 µM, 48 hours. On the procedure: as §5

Molecules are shown by their SMILES.

For `O=c1c2cc(-c3ccc4nc(-c5ccc(Cl)cn5)[nH]c4c3)ccc2ncn1CCN1CCCCC1` [Formula 1-22, 6-(2-(5-Chloropyridin-2-yl)-1H-benzo[d]imidazol-6-yl)-3-(2-(piperidin-1-yl)ethyl)quinazolin-4(3H)-one], the “inhibition of cell viability” value in the test on SKBR3 [1] and in the test on JIMT-1 [2] was “concentration-dependent inhibition of cell viability” throughout. Moreover, the cell viability result with MDA-MB-231 and with JIMT-1 [2] was “excellent activity” throughout. For the same compound, the “morphological changes of the cells” value in the test on JIMT-1 [3] and in the test with SKBR3 [4] was “typical apoptotic morphology” in each case.
As for `O=c1c2cc(-c3ccc4nc(-c5ccc(F)c(Cl)c5)[nH]c4c3)ccc2ncn1CCN1CCCCC1` [Formula 1-16], the cell viability result in test [5] is listed as “effectively inhibited”; in [7], “effectively inhibited”; in test [8], “effectively inhibited”; in the test with MDA-MB-231, “excellent activity”; in test [11], “effectively inhibited”; in the test with JIMT-1 [2], “excellent activity”. Further, the cell viability result in [12] and in test [14] was “effectively inhibited” throughout. For the same compound, the “inhibition of cell viability” value in the test with SKBR3 [1] and with JIMT-1 [2] was “concentration-dependent inhibition of cell viability” throughout. Also, the “cell cycle according to DNA content” value with JIMT-1 [6] was “G2/M phase cell cycle arrest”. The “activities of HER2, p95HER2, HER3, EGFR, AKT, and MEK” value in test [9] is reported as “effectively inhibited”. The “protein expression and phosphorylation of HER2, HER family members (HER3 and EGFR), and AKT and MEK” value in [9] is on record as “decreased in a time-dependent manner”. The “expression of apoptosis-related proteins and degradation of tubulin protein” value in the test on tubulin protein [10] and in the test with tubulin protein [16] was “apoptosis effect by inhibiting tubulin polymerization” each time. The “morphological changes of the cells” value with JIMT-1 [3] and in the test with SKBR3 [4] was “typical apoptotic morphology” throughout. The degree of apoptosis entry with JIMT-1 [13] was “effectively induced early and late apoptosis”; in the test with SKBR3 [15] it was “effectively induced early and late apoptosis”. The “expression of phospho-Histone H3, a marker of mitosis” value with phospho-Histone H3 is “increased abnormal expression of a phospho-Histone H3 protein”.
As for `O=c1c2cc(-c3ccc4nc(-c5ccc(Cl)cc5)[nH]c4c3)ccc2ncn1CCN1CCCCC1` [Formula 1-15, 6-(2-(4-Chlorophenyl)-1H-benzo[d]imidazol-6-yl)-3-(2-(piperidin-1-yl)ethyl)quinazolin-4(3H)-one], the “inhibition of cell viability” value in the test with SKBR3 [1] and in the test with JIMT-1 [2] was “concentration-dependent inhibition of cell viability” each time. Moreover, the cell viability result in the test with MDA-MB-231 and with JIMT-1 [2] was “excellent activity” throughout. For the same compound, the “morphological changes of the cells” value with JIMT-1 [3] and in the test with SKBR3 [4] was “typical apoptotic morphology” throughout.
For `Cc1ccc(-c2nc3ccc(-c4ccc5ncn(CCN6CCCCC6)c(=O)c5c4)cc3[nH]2)cc1` [Formula 1-19], the cell viability result in test [5] is listed as “effectively inhibited”; in test [7], “effectively inhibited”; in test [8] it was “effectively inhibited”; in the test on MDA-MB-231 it was “excellent activity”; in test [11], “effectively inhibited”; in the test on JIMT-1 [2], “excellent activity”. The cell viability result in test [12] and in [14] was “effectively inhibited” each time. The “inhibition of cell viability” value with SKBR3 [1] and in the test on JIMT-1 [2] was “concentration-dependent inhibition of cell viability” throughout. Moreover, the “cell cycle according to DNA content” value in the test on JIMT-1 [6] was “G2/M phase cell cycle arrest”. The “activities of HER2, p95HER2, HER3, EGFR, AKT, and MEK” value in test [9] is “effectively inhibited”. Further, the “protein expression and phosphorylation of HER2, HER family members (HER3 and EGFR), and AKT and MEK” value in [9] was “decreased in a time-dependent manner”. Moreover, the “expression of apoptosis-related proteins and degradation of tubulin protein” value in the test on tubulin protein [10] and in the test with tubulin protein [16] was “apoptosis effect by inhibiting tubulin polymerization” in each case. Further, the “morphological changes of the cells” value in the test on JIMT-1 [3] and with SKBR3 [4] was “typical apoptotic morphology” in each case. The degree of apoptosis result is “effectively induced early and late apoptosis” with JIMT-1 [13]; “effectively induced early and late apoptosis” in the test with SKBR3 [15]. In the test with phospho-Histone H3, the “expression of phospho-Histone H3, a marker of mitosis” value is “increased abnormal expression of a phospho-Histone H3 protein”.
